What was measured:
[1] = biological target: PflaPBP2 (Phauda flammans, UniProt A0A6M6R985); experiment: Fluorescence competitive binding assay with 1-NPN probe, PflaPBP2; conditions: recombinant protein 2 µM, 1-NPN 2 µM, 50 mM Tris-HCl buffer; for Ki: calculated from IC50 and K1-NPN, pH 7.4; for IC50: pH 7.4, room temperature
Description: (§1) An RF-5301PC fluorescence spectrophotometer (Shimadzu, Kyoto, Japan) was used in this experiment for fluorescence competitive binding analysis with a 1-cm quartz colorimetric cup at room temperature. N-Phenyl-1-naphthylamine (1-NPN) was used as the probe and applied for the suitability test. The 1-NPN was excited at 337 nm, in which the emission spectra were recorded between 350 and 660 nm. The purified PflaPBP1 and PflaPBP2 were diluted to a final concentration of 2 µM of the protein solution in Tris-HCl buffer and titrated with aliquots of 1 mM 1-NPN dissolved in methanol, which were 0, 2, 4, 8, 12, 16, 20 µM. The maximum fluorescence value (manipulate peak pick) of each excitation was recorded. The binding data were obtained from three independent measurements. The dissociation constants of PflaPBP1/PflaPBP2 for 1-NPN were calculated from Scatchard plots of the binding data by using Prism 5 software (GraphPad, La Jolla, CA, USA) with nonlinear regression for the one site-specific binding method.
The two sex pheromones Z-9-hexadecenal (Z9H, 96.3% chemical purity) and (Z, Z, Z)-9,12,15-octadecatrienal (Z9O, 93% chemical purity) were obtained from Shanghai T & W Pharmaceutical Co., Ltd. (Shanghai, China) and Pherobank BV (Wijk bij Duurstede, The Netherlands). The competitive binding of these two sex pheromone components was measured using 1-NPN (2 µM) as the fluorescent probe with a stoichiometry of 1:1 (protein: ligand). PflaPBP1 or PflaPBP2 was titrated to a final concentration of 2 μmol/L with 50 mM Tris-HCl buffer. […] All sets of fluorescence spectrophotometers were the same as above. The binding data were obtained from three independent measurements. […] The following formula was adopted to calculate the binding affinities (Ki): Ki=[IC50]/1+[1−NPN/K1−NPN] ) where [1-NPN] is the free concentration of 1-NPN, [IC50] is the ligand concentration replacing 50% of the fluorescence reporter, and K1-NPN is the dissociation constant of the PflaPBP/1-NPN complex. The data were fitted with nonlinear regression model using Prism software (version 5.0).

[2] = biological target: PflaPBP1 (Phauda flammans, UniProt A0A6M6RBM3); experiment: Fluorescence competitive binding assay with 1-NPN probe, PflaPBP1; conditions: recombinant protein 2 µM, 1-NPN 2 µM, 50 mM Tris-HCl buffer; for Ki: calculated from IC50 and K1-NPN, pH 7.4; for IC50: pH 7.4, room temperature
Chain of PflaPBP1 (A0A6M6RBM3 entry or part of it): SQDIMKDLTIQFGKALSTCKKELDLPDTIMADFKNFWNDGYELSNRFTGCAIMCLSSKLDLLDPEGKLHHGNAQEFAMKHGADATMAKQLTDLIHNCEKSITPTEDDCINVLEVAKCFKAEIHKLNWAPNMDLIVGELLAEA
Description: as §1
The two sex pheromones Z-9-hexadecenal (Z9H, 96.3% chemical purity) and (Z, Z, Z)-9,12,15-octadecatrienal (Z9O, 93% chemical purity) were obtained from Shanghai T & W Pharmaceutical Co., Ltd. (Shanghai, China) and Pherobank BV (Wijk bij Duurstede, The Netherlands). The competitive binding of these two sex pheromone components was measured using 1-NPN (2 µM) as the fluorescent probe with a stoichiometry of 1:1 (protein: ligand). PflaPBP1 or PflaPBP2 was titrated to a final concentration of 2 μmol/L with 50 mM Tris-HCl buffer. The sex pheromone dissolved in methanol was gradually added to the mixed solution of protein and 1-NPN with the final concentration of each ligand added to the sample ranging from 0 μM to 20 μM. All sets of fluorescence spectrophotometers were the same as above. The binding data were obtained from three independent measurements. […] The following formula was adopted to calculate the binding affinities (Ki): Ki=[IC50]/1+[1−NPN/K1−NPN] ) where [1-NPN] is the free concentration of 1-NPN, [IC50] is the ligand concentration replacing 50% of the fluorescence reporter, and K1-NPN is the dissociation constant of the PflaPBP/1-NPN complex. The data were fitted with nonlinear regression model using Prism software (version 5.0).

Chain of PflaPBP2 (A0A6M6R985 entry or part of it): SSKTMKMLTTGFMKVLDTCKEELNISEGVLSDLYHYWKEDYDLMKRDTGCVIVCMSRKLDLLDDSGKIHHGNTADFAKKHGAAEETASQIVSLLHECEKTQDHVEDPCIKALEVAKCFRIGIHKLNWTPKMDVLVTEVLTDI

| Compound | Ki [1] [µM] | IC50 [1] [µM] | Ki [2] [µM] | IC50 [2] [µM] |
| --- | --- | --- | --- | --- |
| CC/C=C\C/C=C\C/C=C\CCCCCCCC=O [(Z, Z, Z)-9, 12, 15-octadecatrienal] | 24.8 | 34 | 38.5 | 52.7 |
| CCCCCC/C=C\CCCCCCCC=O [Z-9-hexadecenal] | 109 | 149 | 21.3 | 29.1 |

Source: publication PMC9820377, “Molecular Characterization and Expression Patterns of Two Pheromone-Binding Proteins from the Diurnal Moth Phauda flammans (Walker) (Lepidoptera: Zygaenoidea: Phaudidae)” (International Journal of Molecular Sciences, 2022)
